Data as given in patent publication US20250170101A1, “MONOACYLGLYCEROL LIPASE INHIBITORS AND USE THEREOF FOR THE TREATMENT AND MANAGEMENT OF PAIN AND RELATED CONDITIONS” (Psy Therapeutics, Inc., priority 2021, published 2025).

How the values were obtained:
[1] = tested on: Post-Operative Pain (Brennan) mouse model; test: Chronic treatment in Post-Operative Pain (Brennan) mouse model, Example 27; type: in vivo, Mus Musculus C57BL/6; details: IP
Text: The aim of this experiment was to evaluate effect of the test compounds Compound 74 and JZL-184 in after Chronic treatment in a Post-Operative Pain (Brennan) mouse model. • Mouse model: Mus Musculus & C57BL/6, male, 6-8 weeks • End points: mechanical allodynia and body weight
(§1) • Animals was anaesthetized under Isoflorane anesthesia. • Using aseptic conditions, prepared the plantar aspect of left hind paw with a 10% povidone-iodine solution and place the paw through a hole in a sterile cloth drape. Made a 0.5-cm longitudinal incision through skin and fascia of the paw with a no. 11 scalpel blade, beginning 0.2 cm from the proximal edge of the heel and extending toward the digits. • Elevated the underlying muscle with small curved forceps and incised longitudinally with the scalpel blade, keeping the muscle origin and insertion intact. • After homeostasis with gentle pressure, apposed the skin with 5-0 slik sutures. Cover the wound site.

[2] = tested on: Acute Post-Operative Pain (Brennan) mice model; test: Acute Post-Operative Pain (Brennan) mice model, Example 26; type: in vivo, Mus Musculus C57BL/6; details: 50 & 150 mg/kg, IP; at 30, 60 & 90 min
Text: The aim of this experiment was to evaluate effect of the test compounds Compound 74 and JZL-184 in Acute Post-Operative Pain (Brennan) mice model. • Mouse model: Mus Musculus & C57BL/6, male, 6-8 weeks • End points: mechanical allodynia and brain 2-AG (optional)
as §1

[3] = Plasma and brain concentrations after single intraperitoneal administration, Examples 23 and 24; type: in vivo, male C57BL/6 mice; details: 0.5 h
Description: (§2) This experiment was performed to determine plasma pharmacokinetics and estimate 2-AG levels in male C57BL/6 mice brain following a single intraperitoneal administration of Compound-74 (Dose: 5, 15, 50 and 150 mg/kg). The experiment was repeated at 150 mg/kg on 3 separate test dates to obtain the data shown in FIG. 1A (plasma and brain concentration of Compound 74 30 minutes after IP injection), and on the first and third test dates to obtain the data shown in FIG. 1B (brain concentration of 2-AG30 minutes after IP injection of Compound 74). • Compound 74, Molecular Wt.: 405.46 (Freebase), % Purity: Considered 100%. • Formulation: DMSO • Dose: 5, 15, 50 and 150 mg/kg • Dose volume: 2 mL/kg • Feeding regimen: freely fed • Groups:
Study Design: A total of thirty male mice were used into the study and divided in to five groups with six mice in each group (n=6 mice/group/treatment design). Animals in Group 1 to Group 4 were administered intraperitoneally with Compound 74 solution formulation at 5, 15, 50 and 150 mg/kg dose, respectively. Animals in Group 5 were administered intraperitoneally with vehicle at 2 mL/kg dose. Blood and brain samples were collected at 0.5 h post dose. Mice were euthanized by cervical dislocation and brain samples were dissected rapidly and snap frozen in liquid nitrogen, weighed and homogenized in 2 mL of acetonitrile containing 2-AGd5. Blood samples were centrifuged at 4000 rpm for 10 minutes at 4° C. Plasma was harvested and separated in pre-labeled tubes. All samples were stored below −70° C. until bioanalysis.
Analysis: Brain samples were processed for 2-AG estimation. 2-AG levels were the detected values. Plasma concentrations were determined by fit for purpose LC-MS/MS method. LLOQ: 5.09 ng/mL (Plasma and brain)
This experiment was performed to determine plasma pharmacokinetics and estimate 2-AG levels in male C57BL/6 mice brain following a single intraperitoneal administration of Compound-473 (Dose: 20 mg/kg). • Compound 473, Molecular Wt.: 463.41 (Freebase), % Purity: >98%. • Formulation: DMSO • Dose: 20 mg/kg • Dose volume: 10 mL/kg • Feeding regimen: Food and water ad libitum • Groups:
Study Design: A total of twelve C57BL/6 male mice were used in this study. Six animals were administered intraperitoneally with solution formulation of PSY-05-00473-002 at 20 mg/kg dose. Six animals were administered vehicle (5% NMP, 5% Solutol HS15 and 90% Normal saline) intraperitoneally at 10 mL/kg dose volume. Blood samples (approximately 60 μL) were collected under light isoflurane anesthesia from a set of six mice at 0.5 h. Plasma was harvested by centrifugation of blood and stored at −70±10° C. until analysis. After blood collection, mice were euthanized by cervical dislocation and brain samples were dissected rapidly and snapped frozen in liquid nitrogen and stored at −80. To homogenize, removed brain samples from the freezer, were divided into two equal hemispheres and weighed while still in frozen condition, and begun homogenization/extraction procedure without allowing the brain samples to thaw. One part is used for PK estimation and the other part is used for 2-AG estimation.
Analysis: For PK estimation, brain samples were homogenized in 2 volumes of PBS of brain weight. Total homogenate volume was three times of the brain weight. For 2-AG estimation, the frozen brain samples were homogenized in 2 mL acetonitrile containing 2-AGd5 (8.88 nmoles) will be incubated overnight at −20° C. to precipitate proteins. Blood samples were centrifuged at 10000 rpm for 10 minutes at 4° C. All samples were stored below −70° C. until bioanalysis. Plasma and brain homogenate samples were quantified by fit-for-purpose LC-MS/MS method (LLOQ: 1.02 ng/mL for plasma and 2.03 ng/mL for brain).

[4] = tested on: 2-AG levels in brain; test: Estimation of 2-AG in mouse brain after single intraperitoneal administration, Examples 23 and 24; type: in vivo, male C57BL/6 mice; details: single IP
Description: as §2
Study Design: A total of thirty male mice were used into the study and divided in to five groups with six mice in each group (n=6 mice/group/treatment design). Animals in Group 1 to Group 4 were administered intraperitoneally with Compound 74 solution formulation at 5, 15, 50 and 150 mg/kg dose, respectively. Animals in Group 5 were administered intraperitoneally with vehicle at 2 mL/kg dose. Blood and brain samples were collected at 0.5 h post dose. […]
Analysis: Brain samples were processed for 2-AG estimation. 2-AG levels were the detected values. Plasma concentrations were determined by fit for purpose LC-MS/MS method. […]

[5] = target: T1, MAGL enzyme (Homo sapiens, UniProt Q99685); test: MAGL reversible inhibition assay (washout), Example 22; type: biochemical; set-up: % MAGL activity returning after washout: concentration or dose not given beside the values; details: for degree to which MAGL enzymatic activity returned following washout of test compounds: pre-washout compound concentration 1 μM; for % MAGL activity returning after washout: relative to control (no inhibitor before washout), immediately following 30 minute washout
T1 sequence (Q99685 1-303): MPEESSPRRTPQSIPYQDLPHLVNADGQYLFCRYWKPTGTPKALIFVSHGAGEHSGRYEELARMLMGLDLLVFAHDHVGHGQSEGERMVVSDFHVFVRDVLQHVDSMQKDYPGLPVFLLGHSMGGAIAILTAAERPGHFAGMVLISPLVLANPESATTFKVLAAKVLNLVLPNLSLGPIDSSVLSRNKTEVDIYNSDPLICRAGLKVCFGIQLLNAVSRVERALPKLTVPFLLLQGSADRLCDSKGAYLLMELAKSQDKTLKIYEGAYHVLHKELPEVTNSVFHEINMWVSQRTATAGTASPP
Description: The reversible mechanism of MAGL inhibition of a test compound of Formula (I) can be determined. Flag-tagged MAGL enzyme will be immobilized on anti-Flag beads. Immobilized enzyme will be incubated+/−inhibitor at a dose that produces complete inhibition. Colorimetric substrate (4-NPA) will be added and the reaction monitored on a plate reader for 30 minutes to verify complete inhibition. Immobilized enzyme will then be washed thoroughly to remove the inhibitor, and fresh substrate will be added. The reaction will be monitored for an additional 30 minutes; returning enzymatic activity will indicate reversibility of inhibition. […]
For some test compounds, % activity returning after washout may be less than 100%/if complete compound unbinding takes longer than 30 minutes.

[6] = Pharmacokinetic study of compounds in mice, Example 25; type: in vivo, male C57BL/6 mice; details: Brain, Oral, 5 mg/kg
Description: Healthy male C57BL/6 mice (8-12 weeks old) weighing between 17 to 35 g were procured from Global, India. Temperature and humidity were maintained at 22±3° C. and 30-70%, respectively and illumination was controlled to give a sequence of 12 hr light and 12 hr dark cycle. Temperature and humidity were recorded by auto-controlled data logger system. All the animals were provided laboratory rodent diet. Reverse osmosis water treated with ultraviolet light was provided ad libitum.
Protocol A: Twenty-four male mice were divided into two groups as; Group 1: 30 mg/kg/IP; Plasma and brain; Number of animals=12; Animal #1-12. Group 2: 30 mg/kg/PO; Plasma and brain; Number of animals=12; Animal #13-24. […] All samples were processed for analysis by protein precipitation using acetonitrile and analyzed with fit-for-purpose LC/MS/MS method (LLOQ—2.02 ng/mL for plasma and 6.06 ng/g for brain). Pharmacokinetic parameters were calculated using the non-compartmental analysis tool of Phoenix WinNonlin®.
Protocol B: Thirty six mice were included into the study and divided in to three groups as Group 1 (n=12), Group 2 (n=12) and Group 3 (n=12) with n=2 mice per time-point design. […] Plasma and brain samples were quantified by fit-for-purpose LC-MS/MS method (LLOQ: 1.01 ng/mL for plasma and 2.02 ng/mL for brain). […]

[7] = target: T2, human MAGL (Homo sapiens, UniProt Q99685); test: MAGL inhibition potency (IC50) with 4NPA substrate, Example 20, methods of Table C; type: biochemical; details: Method 12: Enzyme Conc 15, Reaction Biology (15 nM); read-out: MAGL Potency (Detection Method)
T2 construct: recombinant MAGL enzyme (aa 2-303 RBC, internal preparation)
T2 sequence (Q99685 2-303): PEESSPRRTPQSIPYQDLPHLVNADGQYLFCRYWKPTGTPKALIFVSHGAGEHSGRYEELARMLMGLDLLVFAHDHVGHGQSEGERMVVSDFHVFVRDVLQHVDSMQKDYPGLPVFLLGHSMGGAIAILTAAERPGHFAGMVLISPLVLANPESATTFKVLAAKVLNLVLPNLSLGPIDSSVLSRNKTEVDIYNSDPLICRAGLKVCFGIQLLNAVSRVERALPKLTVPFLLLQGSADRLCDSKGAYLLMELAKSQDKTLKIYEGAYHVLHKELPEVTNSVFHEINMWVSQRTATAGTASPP

Compound	mechanical allodynia (Threshold, g) vs Vehicle control ([1]; 50 mg/kg, QD×8 days)	mechanical allodynia (Threshold, g) vs Vehicle control ([1]; 50 & 150 mg/kg, single dose)	mechanical allodynia (Threshold, g) vs Vehicle control [2]	Brain Plama Ratio (Kp) range ([3]; IP 5 mg/kg)	Plasma concentration range ([3]; IP 5 mg/kg)	Brain Plama Ratio (Kp) range ([3]; IP 15 mg/kg)	Brain concentration range ([3]; IP 15 mg/kg)	Plasma concentration range ([3]; IP 15 mg/kg)	Brain Plama Ratio (Kp) range ([3]; IP 50 mg/kg)	Plasma concentration range ([3]; IP 50 mg/kg)	Brain Plama Ratio (Kp) range ([3]; IP 150 mg/kg)	Brain concentration range ([3]; IP 150 mg/kg)	Plasma concentration range ([3]; IP 150 mg/kg)	levels of 2-AG compared to baseline (vehicle treatment) ([4]; 5 and 15 mg/kg dose)	levels of 2-AG compared to baseline (vehicle treatment) ([4]; 50 and 150 mg/kg dose groups)	degree to which MAGL enzymatic activity returned following washout of test compounds [5]	% MAGL activity returning after washout [5]	AUClast [6]	IC50 [7]
Cc1cc(C2CC3(C2)CN(C(=O)c2cc(O)ccc2F)C3)n(-c2ccccc2C)n1 [Compound 74, (2-fluoro-5-hydroxyphenyl)(6-(3-methyl-1-(o-tolyl)-1H-pyrazol-5-yl)-2-azaspiro[3.3]heptan-2-yl)methanone]	significant decrease in mechanical allodynia	significant decrease in mechanical allodynia	significant decrease in mechanical allodynia	0.51-0.68	12 to 186 ng/mL	0.16-0.44	25 to 67 ng/g	70 to 414 ng/mL	0.06-0.08	447 to 14914 ng/mL	0.07-0.20	2412 to 12111 ng/g	34920 to 70256 ng/mL	elevated slightly	significant increase	162	>50%	–	–
Cc1cnn(C2CC3(C2)CN(C(=O)c2cc(O)ccc2F)C3)c1-c1cc(F)ccc1F (single isomer, unassigned) [Compound 476, {6-[5-(2,5-difluorophenyl)-4-methyl-1-pyrazolyl]-2-aza-2-spiro[3.3]heptyl}(2-fluoro-5-hydroxyphenyl)methanone]	–	–	–	–	–	–	–	–	–	–	–	–	–	–	–	–	–	223.64 ng·h/mL	–
Cc1cn(C2CC3(C2)CN(C(=O)c2cc(O)ccc2F)C3)nc1-c1cc(F)ccc1Cl (single isomer, unassigned) [Compound 520, {6-[3-(2-chloro-5-fluorophenyl)-4-methyl-1-pyrazolyl]-2-aza-2-spiro[3.3]heptyl}(2-fluoro-5-hydroxyphenyl)methanone]	–	–	–	–	–	–	–	–	–	–	–	–	–	–	–	100	>50%	–	< 50 nM
